# EP4703354A1, “COMPOUND AS CCR6 ANTAGONIST, AND PHARMACEUTICAL COMPOSITION AND USE THEREOF” (Wuhan Createrna Science and Technology Co.,Ltd., priority 2023, dated 2024)
# Like-named read-outs stand apart in the source and are kept apart here.
# Assays:
# [1] = in vitro liver microsome metabolic stability, human; assay type: in vitro ADME; settings: Human liver microsomes, 37°C
# Procedure: (§1) Preparation of working solutions for test compounds and standards: An appropriate amount of the compound was accurately weighed and dissolved in a corresponding volume of suitable solvent to prepare 1 mM stock solutions of the test compounds and standards. The stock solutions were then diluted with appropriate solvent to obtain 100 µM working solutions of the test compounds, ensuring that the DMSO content in the working solutions remained below 10%.
# (§2) The internal standard compound testosterone (or tolbutamide) and its corresponding solvent, internal standard concentration (200 ng/mL), were selected based on the properties of the test compound.
# (§3) • Solution A: 0.1 mol/L K2HPO4 (2.28 g K2HPO4·3H2O was dissolved in 100 mL of double-distilled water); • Solution B: 0.1 mol/L KH2PO4 (1.36 g KH2PO4 was dissolved in 100 mL of double-distilled water); • 80.2 mL of Solution A and 19.8 mL of Solution B were mixed thoroughly, and the pH was adjusted to 7.4.
# (§4) 37.5 mg of glycine was weighed, dissolved in 100 mL of ultrapure water, and adjusted to pH 8.0 with NaOH.
# (§5) 1.25 mg of glucose-6-phosphate dehydrogenase (400 U/mg) was weighed (the specific amount weighed was calculated based on the activity of the purchased glucose-6-phosphate dehydrogenase), dissolved in 1 mL of glycine buffer to a concentration of 500 U/mL, aliquoted into 20 µL per tube, and stored at -20°C for future use.
# (§6) 7.83 mg of NADP, 0.06 mL of D-glucose-6-phosphate (260 mg/mL), and 10.17 mg of MgCl2·6H2O were precisely weighed.
# (§7) The mixture was dissolved in 1 mL of pure water. The cofactor ratio composition: NADP 10 mM, D-glucose-6-phosphate 60 mM, MgCl2·6H2O 50 mM.
# (§8) The reaction system (taking a 500 µL system as an example) was composed of the following solution ratios: 416.5 µL phosphate buffer, 5 µL compound working solution, 25 µL liver microsomes, 3.5 µL glucose-6-phosphate dehydrogenase, and 50 µL cofactor solution. The total incubation volume could be adjusted according to experimental requirements.
# (§9) 416.5 µL of phosphate buffer was taken, 25 µL of liver microsomes, 3.5 µL of glucose-6-phosphate dehydrogenase, and 50 µL of cofactor solution were added, vortexed twice to mix, and preincubated in a 37°C water bath for 5 minutes. Then, 5 µL of the test compound working solution was added, vortexed twice to mix, each time for 2-3 seconds, and placed in a 37°C water bath to initiate the reaction, with two parallel samples set. At 0.5 min, 1 min, 2 min, 5 min, 15 min, and 30 min after the reaction, 50 µL of the mixture was taken and added to centrifuge tubes containing 200 µL of 0°C pre-cooled internal standard working solution to terminate the reaction, vortexed for 1 minute to mix, and centrifuged at 13,000 rpm for 10 minutes in a 4°C pre-cooled high-speed centrifuge. The supernatant was collected for analysis. After the compound was added and vortex-mixed, 50 µL of the mixture was rapidly transferred to a centrifuge tube containing 200 µL of a pre-cooled (0°C) internal standard working solution to terminate the reaction, vortex-mixed for 1 minute, and used as the relative zero-point sample (relative to the standard group). The sample was then placed into a 37°C water bath to initiate the reaction, and timing was started.
# (§10) The sample analysis of the test compound was performed using the liquid chromatography-tandem mass spectrometry (LCMS/MS) method. The semi-quantitative determination was performed using the ratio of the analyte peak area to the internal standard peak area. The retention times of the analyte and internal standard, chromatogram acquisition, and chromatogram integration were processed using Analyst software.
# (§11) The in vitro elimination rate constant k of the test compound and the control compound was determined by converting the ratio of the peak area of the test compound to the internal standard into the remaining rate, and T1/2 was then calculated according to the following formula. T1/2 = (Ln2)/(k) = (0.693)/(k) [formula] Table 3. […]
# [2] = in vitro liver microsome metabolic stability, rat; assay type: in vitro ADME; settings: Rat liver microsomes, 37°C
# Procedure: as §1, §2, §3, §4, §5, §6, §7, §8, §9, §10, §11
# [3] = in vitro liver microsome metabolic stability, beagle dog; assay type: in vitro ADME; settings: Beagle dog liver microsomes, 37°C
# Procedure: as §1, §2, §3, §4, §5, §6, §7, §8, §9, §10, §11
# [4] = in vivo pharmacokinetic study in SD rats; settings: rat; for bioavailability: 1 mg/kg PO vs 1 mg/kg IV, read-out: Oral bioavailability F (%); for AUC(0-t) / Cmax / half-life: 1 mg/kg
# How it was run: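 Male SD rats (180-200 g), 3 per route: single fasted oral gavage in 1% Tween 80 or tail-vein IV bolus in 50% PEG400. Orbital blood into EDTA-K2 sampled to 8 h; plasma analysed and PK parameters derived by non-compartmental analysis.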
SMILES,Liver microsome T1-2 (min) Human [1] [min],Liver microsome T1-2 (min) Rat [2] [min],Liver microsome T1-2 (min) Beagle dog [3] [min],also measured
"Cc1cccnc1[C@H](Nc1c(Nc2ccc(F)c(C(=O)N(C)C)c2O)c(=O)c1=O)C1(C)CC(F)(F)C1 [compound 089, (R)-3-((2-(((3,3-difluoro-1-methylcyclobutyl)(3-methylpyridin-2-yl)methyl)amino)-3,4-dioxocyclobut-1-en-1-yl)amino)-6-fluoro-2-hydroxy-N,N-dimethylbenzamide]",331.10,88.93,258.52,"bioavailability ([4]; male, plasma): 21.1%; AUC(0-t) ([4]; male, plasma, IV): 772 ng·h/mL; Cmax ([4]; male, plasma, IV): 4300 ng/mL; AUC(0-t) ([4]; male, plasma, PO): 163 ng·h/mL; Cmax ([4]; male, plasma, PO): 96.4 ng/mL; half-life ([4]; male, plasma, PO): 2.61 h"
"Cc1cccnc1[C@H](Nc1c(Nc2ccnc(C(=O)N(C)C)c2O)c(=O)c1=O)[C@]1(C)CC(F)(F)CO1 (single isomer, unassigned) [128B]",158.82,216.24,222.45,"bioavailability ([4]; male, plasma): 36.7%; AUC(0-t) ([4]; male, plasma, IV): 910 ng·h/mL; Cmax ([4]; male, plasma, IV): 3270 ng/mL; AUC(0-t) ([4]; male, plasma, PO): 334 ng·h/mL; Cmax ([4]; male, plasma, PO): 182 ng/mL"
CN(C)C(=O)c1nccc(Nc2c(NC(c3nc(C(F)(F)F)ccc3F)C3(C)CC(F)(F)CO3)c(=O)c2=O)c1O (centres unmarked) [compound 098],208.30,195.59,102.59,"bioavailability ([4]; in vivo): 21.6%; AUC(0-t) ([4]; in vivo, IV): 630 ng·h/mL; Cmax ([4]; in vivo, IV): 2740 ng/mL; AUC(0-t) ([4]; in vivo, PO): 136 ng·h/mL; Cmax ([4]; in vivo, PO): 102 ng/mL; half-life ([4]; in vivo, PO): 2.74 h"
"Cc1cccnc1[C@H](Nc1c(Nc2ccnc(C(=O)N(C)C)c2O)c(=O)c1=O)[C@@]1(C)CC(F)(F)CO1 (single isomer, unassigned) [128A]",310.89,78.14,160.31,
"Cc1cccnc1[C@H](Nc1c(Nc2ccc(Cl)c(C(=O)N(C)C)c2O)c(=O)c1=O)C1(C)CC(F)CO1 (stereo partly drawn) [compound 081, 6-chloro-3-((2-(((1S)-(4-fluoro-2-methyltetrahydrofuran-2-yl)(3-methylpyridin-2-yl)methyl)amino)-3,4-dioxocyclobut-l-en-1-yl)amino)-2-hydroxy-N,N-dimethylbenzamide]",713.96,403.32,669.81,
"Cc1nccnc1[C@H](Nc1c(Nc2ccc(F)c(C(=O)N(C)C(C)C)c2O)c(=O)c1=O)C1(C)CCCC1 [compound 090, (R)-6-fluoro-2-hydroxy-N-isopropyl-N-methyl-3-((2-(((1-methylcyclopentyl)(3-methylpyrazin-2-yl)methyl)amino)-3,4-dioxocyclobut-1-en-1-yl)amino)benzamide]",209.60,50.16,355.30,
"Cc1cccnc1C(Nc1c(Nc2ccc(Cl)c(C(=O)N(C)C)c2O)c(=O)c1=O)C1(C)CCOC1 (centres unmarked) [compound 083, 6-chloro-2-hydroxy-N,N-dimethyl-3-((2-(((3-methylpyridin-2-yl)(3-methyltetrahydrofuran-3-yl)methyl)amino)-3,4-dioxocyclobut-1-en-1-yl)amino)benzamide]",412.77,290.38,741.46,
"CN(CC(F)(F)F)C(=O)c1nccc(Nc2c(N[C@@H](c3ccc(F)cn3)C3(C)CCCC3)c(=O)c2=O)c1O [compound 070, (R)-4-((2-(((5-fluoropyridin-2-yl)(1-methylcyclopentyl)methyl)amino)-3,4-dioxocyclobut-1-en-1-yl)amino)-3-hydroxy-N-methyl-N-(2,2,2-trifluoroethyl)picolinamide]",201.75,34.22,37.22,
"Cc1cccnc1C(Nc1c(Nc2ccc(F)c(C(=O)N(C)C)c2O)c(=O)c1=O)[C@@]1(C)CC(F)(F)CO1 (stereo partly drawn) [087B, 3-((2-((((R)-4,4-difluoro-2-methyltetrahydrofuran-2-yl)(3-methylpyridin-2-yl)methyl)amino)-3,4-dioxocyclobut-1-en-1-yl)amino)-6-fluoro-2-hydroxy-N,N-dimethylbenzamide]",369.68,571.31,567.51,
"Cc1cccnc1[C@H](Nc1c(Nc2ccc(Cl)c(C(=O)N(C)C)c2O)c(=O)c1=O)C1(C)CC(F)(F)C1 [compound 088, (R)-6-chloro-3-((2-(((3,3-difluoro-1-methylcyclobutyl)(3-methylpyridin-2-yl)methyl)amino)-3,4-dioxocyclobut-l-en-1-yl)amino)-2-hydroxy-N,N-dimethylbenzamide]",423.69,39.67,753.15,
"CN(CC(F)F)C(=O)c1nccc(Nc2c(N[C@@H](c3ccc(F)cn3)C3(C)CCCC3)c(=O)c2=O)c1O [compound 071, (R)-N-(2,2-difluoroethyl)-4-((2-(((5-fluoropyridin-2-yl)(1-methylcyclopentyl)methyl)amino)-3,4-dioxocyclobut-1-en-1-yl)amino)-3-hydroxy-N-methylpicolinamide]",262.47,52.81,54.52,
